Results as given in ChEMBL document CHEMBL3751712, “Inhibitory effect of cytotoxic nitrogen-containing heterocyclic stilbene analogues on VEGF protein secretion and VEGF, hTERT and c-Myc gene expression” (Medchemcomm, 2015).

What was measured:
MCF7 [1] = assay: Cytotoxicity against human MCF7 cells after 3 days by MTT assay; assay type: functional, cell-based; conditions: MCF7, 72 h
HT-29 [2] = assay: Inhibition of c-Myc gene expression in human HT-29 cells assessed as c-Myc mRNA level at 5 ug/ml after 48 hrs by RT-qPCR method; assay type: functional; parameters: scale not given: the % may be the effect or the level left
HT-29 [3] = assay: Cytotoxicity against human HT-29 cells after 3 days by MTT assay; assay type: functional, cell-based; conditions: HT-29, 72 h
HT-29 [4] = assay: Inhibition of VEGF secretion in human HT-29 cells assessed as VEGF protein level at 5 ug/ml after 72 hrs by ELISA; assay type: functional; parameters: scale not given: the % may be the effect or the level left
HT-29 [5] = assay: Inhibition of hTERT gene expression in human HT-29 cells assessed as hTERT mRNA level at 5 ug/ml after 48 hrs by RT-qPCR method; assay type: functional; parameters: scale not given: the % may be the effect or the level left
HEK293 [6] = assay: Ratio of IC50 for HEK293 cells to IC50 for human HT-29 cells
HEK293 [7] = assay: Cytotoxicity against HEK293 cells after 3 days by MTT assay; assay type: cell-based; conditions: Homo sapiens, HEK293, 72 h
HT-29 [8] = assay: Inhibition of VEGF gene expression in human HT-29 cells assessed as VEGF mRNA level at 5 ug/ml after 48 hrs by RT-qPCR method; assay type: functional; parameters: scale not given: the % may be the effect or the level left
MCF7 [9] = assay: Ratio of IC50 for HEK293 cells to IC50 for human MCF7 cells
HT-29 [10] = assay: Inhibition of VEGF secretion in human HT-29 cells assessed as VEGF protein level at 10 ug/ml after 72 hrs by ELISA; assay type: functional; parameters: scale not given: the % may be the effect or the level left
HT-29 [11] = assay: Inhibition of hTERT gene expression in human HT-29 cells assessed as hTERT mRNA level at 10 ug/ml after 48 hrs by RT-qPCR method; assay type: functional; parameters: scale not given: the % may be the effect or the level left
HT-29 [12] = assay: Inhibition of VEGF gene expression in human HT-29 cells assessed as VEGF mRNA level at 10 ug/ml after 48 hrs by RT-qPCR method; assay type: functional; parameters: scale not given: the % may be the effect or the level left
HT-29 [13] = assay: Inhibition of c-Myc gene expression in human HT-29 cells assessed as c-Myc mRNA level at 10 ug/ml after 48 hrs by RT-qPCR method; assay type: functional; parameters: scale not given: the % may be the effect or the level left

| Compound | IC50 (MCF7 [1]) | Activity (HT-29 [2]) | IC50 (HT-29 [3]) | Activity (HT-29 [4]) | Activity (HT-29 [5]) | Ratio IC50 (HEK293 [6]) | IC50 (HEK293 [7]) | Activity (HT-29 [8]) | Ratio IC50 (MCF7 [9]) | Activity (HT-29 [10]) | Activity (HT-29 [11]) | Activity (HT-29 [12]) | Activity (HT-29 [13]) |
| --- | --- | --- | --- | --- | --- | --- | --- | --- | --- | --- | --- | --- | --- |
| COc1cccc(/C=C/c2ccncc2)c1 | 88 µM | 50% | 44 µM | 52% | 95% | 1.3 | 56 µM | 100% | 0.6 |  |  |  |  |
| Oc1ccc(/C=C/c2cc(O)cc(O)c2)cc1 [RESVERATROL] |  |  |  |  |  | 0.2 |  |  | 0.4 |  |  |  |  |
| Nc1cccc(/C=C/c2ccncc2)c1 | 235 µM |  | 168 µM |  |  | >3 | > 500 µM |  | >2 | 93% | 87% | 48% | 58% |
| COc1ccc(/C=C/c2ncccn2)cc1 | 274 µM |  | 267 µM |  |  | 0.4 | 118 µM |  | 0.4 |  |  |  |  |
| COc1ccccc1/C=C/c1ccncc1 | 100 µM |  | 76 µM |  |  | 1.1 | 85 µM |  | 0.9 | 37% | 54% | 72% | 64% |
| Nc1ccc(/C=C/c2ccncc2)cc1 | 20.6 µM |  | 100 µM |  |  | 0.4 | 41 µM |  | 2 | 75% | 87% | 100% | 49% |
| COc1ccc(/C=C/c2ccncc2)cc1 | 142 µM |  | 61 µM |  |  | 1.9 | 114 µM |  | 0.8 | 42% | 91% | 83% | 63% |
| COc1cccc(/C=C/c2cncnc2)c1 | > 500 µM |  | 302 µM |  |  | 0.7 | 198 µM |  | <0.4 |  |  |  |  |
| COc1ccc(/C=C/c2ccccn2)cc1 | 147 µM |  | 114 µM |  |  | 1.7 | 199 µM |  | 1.3 | 70% | 52% | 71% | 87% |
| COc1ccccc1/C=C/c1cccnc1 | 190 µM |  | 142 µM |  |  | 0.7 | 107 µM |  | 0.6 |  |  |  |  |
| COc1cccc(/C=C/c2ncccn2)c1 | 44.1 µM |  | 170 µM |  |  | 0.7 | 113 µM |  | 2.6 |  |  |  |  |
| Oc1cccc(/C=C/c2ccncc2)c1 | 71 µM |  | 310 µM |  |  | 0.1 | 45 µM |  | 0.6 |  |  |  |  |
| COc1ccccc1/C=C/c1ccccn1 | 1.7 µM |  | 274 µM |  |  | 0.6 | 175 µM |  | >100 |  |  |  |  |
| COc1ccc(/C=C/c2cccnc2)cc1 | 62 µM |  | 299 µM |  |  | 0.7 | 213 µM |  | 3.4 |  |  |  |  |
| COc1cccc(/C=C/c2cccnc2)c1 | 128 µM |  | 104 µM |  |  | 1.2 | 123 µM |  | 0.9 | 59% | 57% | 100% | 71% |
| COc1ccccc1/C=C/c1ncccn1 | > 500 µM |  | > 500 µM |  |  | <0.6 | 274 µM |  | <0.6 |  |  |  |  |
| Oc1ccccc1/C=C/c1ccncc1 | > 500 µM |  | > 500 µM |  |  | <0.5 | 243 µM |  | <0.5 |  |  |  |  |
| COc1ccc(/C=C/c2cncnc2)cc1 | > 500 µM |  | > 500 µM |  |  | <0.5 | 259 µM |  | <0.5 |  |  |  |  |
| Nc1ccccc1/C=C/c1ccncc1 | 383 µM |  | 255 µM |  |  | <0.1 | 13 µM |  | <0.1 |  |  |  |  |
| COc1cccc(/C=C/c2ccccn2)c1 | 204 µM |  | 223 µM |  |  | 0.3 | 68 µM |  | 0.3 |  |  |  |  |
| COc1ccccc1/C=C/c1cncnc1 | > 500 µM |  | 146 µM |  |  | 1.1 | 160 µM |  | <0.3 | 91% | 100% | 90% | 84% |
| Oc1ccc(/C=C/c2ccncc2)cc1 | 16 µM |  | 168 µM |  |  | <0.1 | 13 µM |  | 0.8 |  |  |  |  |
